Read-outs that look alike come from different tables or passages of the source.
Tests used:
[1] = system: HCV subgenomic replicon in Huh-7 cells; test: Replicon Assay (Example B), luciferase readout EC50; type: cell-based
Summary of the method: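 Huh-7 cells carrying a luciferase-neo HCV subgenomic replicon (NS3–NS5b) were treated with semilog compound dilutions (0.1% DMSO final), in triplicate, for 72 h at 37° C. EC50 came from Bright-Glo luciferase signal as a proxy for replicon RNA; viability was read by Alamar blue.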

[2] = system: Huh-7 cells persistently infected with the HCV subgenomic replicon; test: Replicon Assay (Example B), Alamar Blue cytotoxicity CC50; type: cell-based; settings: lower value of the cell pair
Summary of the method: (§1)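 Huh-7 cells carrying a luciferase/neo HCV subgenomic replicon (NS3–NS5b) were treated with semilog compound dilutions in triplicate (0.1% DMSO) for 72 h at 37 °C. Viability came from Alamar blue resazurin-to-resorufin fluorescence (535/590 nm) for CC50. EC50 came from Bright-Glo luciferase luminescence as a proxy for HCV RNA.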

full length NS3/4a = full length NS3/4a (Hepatitis C virus genotype 1b (isolate BK) (HCV), UniProt P26663); test: NS3 Protease Assay (Example A), FRET-based; type: biochemical
Chain of full length NS3/4a (P26663 1027-1657): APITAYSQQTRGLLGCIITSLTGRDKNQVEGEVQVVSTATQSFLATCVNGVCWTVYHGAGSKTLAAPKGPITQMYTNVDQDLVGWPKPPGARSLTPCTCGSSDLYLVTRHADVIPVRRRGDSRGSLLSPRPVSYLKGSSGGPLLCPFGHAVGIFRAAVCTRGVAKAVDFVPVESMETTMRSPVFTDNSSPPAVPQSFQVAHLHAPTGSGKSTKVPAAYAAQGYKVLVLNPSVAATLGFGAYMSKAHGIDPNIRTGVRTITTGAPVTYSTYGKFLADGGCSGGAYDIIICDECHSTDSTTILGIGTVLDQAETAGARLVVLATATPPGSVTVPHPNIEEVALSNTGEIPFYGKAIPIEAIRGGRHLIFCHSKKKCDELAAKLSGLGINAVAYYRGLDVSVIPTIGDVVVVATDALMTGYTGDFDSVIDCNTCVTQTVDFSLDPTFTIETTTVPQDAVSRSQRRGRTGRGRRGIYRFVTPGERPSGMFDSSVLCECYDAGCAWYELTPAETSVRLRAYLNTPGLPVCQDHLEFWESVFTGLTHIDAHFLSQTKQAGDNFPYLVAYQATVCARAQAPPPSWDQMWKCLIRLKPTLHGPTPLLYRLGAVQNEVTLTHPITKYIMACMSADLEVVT
Summary of the method: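 Initial rates were taken from fluorescence progress curves over 30 min at room temperature, and IC50 was fitted across replicates. In-house full-length NS3/4a cleaved a FRET peptide (5-FAMsp/QXL520) from the NS4A/B site. Medium: 50 mM Tris pH8, 20 mM DTT, 1% CHAPS, 10% glycerol, 5% DMSO.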

[3] = Replicon Assay (Example B), Alamar Blue cytotoxicity CC50; type: cell-based; settings: human, lower value of the cell pair
Summary of the method: as §1

[4] = system: compound resistant HCV replicon variants in replicon bearing cells; test: Colony forming assay for compound resistant HCV replicon variants (Example C); type: cell-based; settings: up to 10x EC50, 1 mg/ml geneticin, 24 days, coomasie blue staining
Description: The existence of compound resistant HCV replicon quasispecies was analysed using colony forming assays, where the emergence of compound resistant HCV replicon variants can allow production sufficient replicon encoded neomycin for cellular survival in medium containing 1 mg/ml geneticin (Life Technologies). 4,000 replicon bearing cells were plated/well on 12 well plates, and allowed to adhere overnight. […] The medium used also contained 1 mg/ml geneticin. Plates were then incubated at 37° C. in an atmosphere of 5% CO2 and air for 24 days the medium/compound solution with 1 mg/ml gentamicin was replaced twice every 7 days, before staining surviving colonies with coomasie blue.

[5] = HCV NS3 protease assay, full length NS3/4a, read-out: Assay A IC50 (μM) average
[6] = Hepatitis C virus, Huh-7, replicon assay, luciferase readout, upper value of the cell pair, read-out: Assay B EC50
[7] = read-out: IC50 against the protease activity of the full length NS3/4a

Row | Structure (SMILES) | EC50 ([1]; replicon assay, luciferase readout, upper value of the cell pair, read-out: Assay B EC50) | CC50 [2] | IC50 (full length NS3/4a; [5]) | EC50 ([1]; Hepatitis C virus, Huh-7, pre-determined EC50 used to set concentrations in combination studies, read-out: EC50 (replicon)) | EC50 [1, 6] | CC50 at 72 h [3] | emergence of compound resistant colonies [4] | IC50 (full length NS3/4a; [7]) | inhibition at 0.1 µM (full length NS3/4a; @ 0.1 uM)
1 | CCC(NC1CCCC1C(N)=O)c1ccc(Cl)c(C(=O)c2ccc(N)nc2)c1F (racemic) [Example 126, 2-{[1-{3-[(6-aminopyridin-3-yl)carbonyl]-4-chloro-2-fluorophenyl}propyl]amino} cyclopentane-1-carboxamide] | 91 nM | > 3000 nM | – | – | – | – | – | – | –
2 | CC[C@@H](N[C@@H](C)CC(N)=O)c1ccc(Cl)c(C(=O)c2ccccc2)c1F [Example 84, (3S)-3-{[(1R)-1-(3-benzoyl-4-chloro-2-fluorophenyl)-propyl]-amino}butanamide] | – | – | 0.057 µM | 6 nM | 6 nM | > 3000 nM | prevented | – | –
3 | C[C@@H](CC(N)=O)N[C@@H](c1ccc(Cl)c(C(=O)c2ccc(N)c(Cl)c2)c1F)C1CC1 [Example 261, (3S)-3-{[(R)-{3-[(4-amino-3-chlorophenyl)carbonyl]-4-chloro-2-fluorophenyl}(cyclopropyl)methyl]amino}butanamide] | – | – | 0.16 µM | – | 9.1 nM | > 1000 nM | – | < 1 µM | –
4 | Cc1cc(C(=O)c2c(Cl)ccc([C@H](N[C@@H](C)CC(N)=O)C3CC3)c2F)ccc1N [Example 262, (3S)-3-{[(R)-{3-[(4-amino-3-methylphenyl)carbonyl]-4-chloro-2-fluorophenyl}-(cyclopropyl)-methyl]-amino}butanamide] | – | – | – | – | 8.5 nM | > 1000 nM | – | – | 32%
5 | C[C@@H](CC(N)=O)N[C@@H](c1ccc(Cl)c(C(=O)c2ccc(CO)cc2)c1F)C1CC1 [Example 263, (3S)-3-{[(R)-(4-chloro-2-fluoro-3-{[4-(hydroxyl-methyl)phenyl]-carbonyl}phenyl)(cyclo-propyl)-methyl]amino}-butanamide] | – | – | 0.11 µM | – | 4 nM | 79000 nM | – | – | –
6 | [2H]C([2H])([2H])C([2H])([2H])[C@@H](N[C@@H](C)CC(N)=O)c1ccc(Cl)c(C(=O)c2ccc(N)nc2)c1F [Example 265, (3S)-3-{[(1R)-1-{3-[(6-aminopyridin-3-yl)carbonyl]-4-chloro-2-fluorophenyl}(2,2,3,3,3-deutero)propyl]amino}-butanamide] | – | – | 0.13 µM | – | 25 nM | > 3000 nM | – | – | –
7 | [2H]C([2H])([2H])C([2H])([2H])[C@@H](N[C@@H](C)CC(N)=O)c1ccc(Cl)c(C(=O)c2ccc(N)c(Cl)c2)c1F [Example 267, (3S)-3-{[(1R)-1-{3-[(4-amino-3-chlorophenyl)carbonyl]-4-chloro-2-fluorophenyl}(2,2,3,3,3-deutero)propyl]amino}-butanamide] | – | – | 0.085 µM | – | 5 nM | > 3000 nM | – | < 1 µM | –
8 | CC(C)C[C@@H](N[C@@H](C)CC(N)=O)c1ccc(Cl)c(C(=O)c2ccc(N)nc2)c1F [Example 269, (3S)-3-{[(1R)-1-{3-[(6-aminopyridin-3-yl)carbonyl]-4-chloro-2-fluorophenyl}-3-methylbutyl]amino}-butanamide] | – | – | 1.1 µM | – | 70 nM | > 3000 nM | – | 1 to 5 µM | –
9 | C[C@@H](CC(N)=O)N[C@@H](c1ccc(Cl)c(C(=O)c2ccc3c(c2)OCC(=O)N3)c1F)C1CC1 [Example 270, (3S)-3-{[(R)-{4-chloro-2-fluoro-3-[(3-oxo-3,4-dihydro-2H-1,4-benzoxazin-7-yl)carbonyl]phenyl} (cyclopropyl)methyl]amino} butanamide] | – | – | 0.18 µM | – | 6 nM | > 3000 nM | – | < 1 µM | –
10 | CC[C@@H](N[C@@H](C)CC(N)=O)c1ccc(OC)c(C(=O)c2ccc(N)c(C)c2)c1F [Example 273, (3S)-3-{[(1R)-1-{3-[(4-amino-3-methylphenyl)carbonyl]-2-fluoro-4-methoxyphenyl}propyl]amino}butanamide] | – | – | 0.14 µM | – | 27 nM | > 3000 nM | – | – | –
11 | COc1cc(C(=O)c2c(Cl)ccc([C@H](N[C@@H](C)CC(N)=O)C3CC3)c2F)ccc1C#N [Example 275, (3S)-3-{[(R)-{4-chloro-3-[(4-cyano-3-methoxyphenyl)carbonyl]-2-fluorophenyl}(cyclopropyl)methyl]amino}butanamide] | – | – | 0.13 µM | – | 6.7 nM | > 3000 nM | – | – | –
12 | CC[C@@H](N[C@@H](C)CC(N)=O)c1ccc(OC)c(C(=O)c2cccc(C#N)c2)c1F [Example 276, (3S)-3-{[(1R)-1-{3-[(3-cyanophenyl)carbonyl]-2-fluoro-4-methoxyphenyl}propyl]amino}butanamide] | – | – | 0.11 µM | – | 27 nM | > 3000 nM | – | – | –
13 | C[C@@H](CC(N)=O)N[C@H](CC1CC1)c1ccc(Cl)c(C(=O)c2ccc(N)nc2)c1F [Example 278, (3S)-3-{[(1R)-1-{3-[(6-aminopyridin-3-yl)carbonyl]-4-chloro-2-fluorophenyl}-2-cyclopropylethyl]amino} butanamide] | – | – | 0.5 µM | – | 27 nM | > 3000 nM | – | – | –
14 | [2H]C([2H])([2H])C([2H])([2H])[C@@H](N[C@@H](C)CC(N)=O)c1ccc(Cl)c(C(=O)c2ccc3c(c2)OCC(=O)N3)c1F [Example 280, (3S)-3-{[(1R)-1-{4-chloro-2-fluoro-3-[(3-oxo-3,4-dihydro-2H-1,4-benzoxazin-7-yl)carbonyl]phenyl}(2,2,3,3,3-pentadeuteryl)propyl]amino} butanamide] | – | – | 0.3 µM | – | 25 nM | > 3000 nM | – | – | –

— US9145354B2, “Pharmaceutical compounds” (priority 2011, dated 2015)
